Experimental data published in US10316021B2, “Heteroarylphenoxy benzamide kappa opioid ligands” (Pfizer Inc., priority 2016, dated 2019).
pIC50, pKi: −log10 of the molar value. “Also recorded” adds a separate entry of the source. Read-outs that look alike come from different tables or passages of the source.

How the values were obtained:
[1] = target: T1, human kappa opioid receptor (hKOR) (Homo sapiens, UniProt P41145); assay: Kappa radioligand binding assay ([3H]diprenorphine, CHO cell membranes); conditions: for pKi: read-out: hKOR binding assay Ki; for Selectivity hMOR/hKOR: selectivity ratio calculated by dividing the hMOR Ki by the hKOR Ki
T1 construct: expressed in transfected cells; host or cells: CHO cells
Description: (§1) Kappa and Mu Radioligand Binding Assay:
(§2) Binding assays on membranes from CHO cells expressing human kappa or mu opioid receptors were performed according to standard procedures. Frozen cell paste was homogenized in 50 mM Tris HCl buffer (pH 7.4 @ 4 degrees C.) containing 2.0 mM MgCl2 using a Polytron and spun in a centrifuge at 40,000 g for ten minutes. The final pellet was resuspended in assay buffer (50 mM Tris HCl buffer, pH 7.4, containing 1 mM EDTA, 5 mM MgCl2). Incubations were initiated by the addition of membranes to 96-well plates containing test drugs and [^3H]diprenorphine (0.6 nM final concentration for kappa opioid receptor and 0.5 nM final concentration for mu) in a final volume of 250 μl. Non-specific binding was determined by radioligand binding in the presence of a saturating concentration of naltrexone (10 μM). After a one hour incubation period at room temperature, assay samples were rapidly filtered through PEI coated, GF/B fired Unifilter plates (PerkinElmer) and rinsed with ice-cold 50 mM Tris buffer (pH 7.4). Membrane bound [^3H]diprenorphine levels were determined by liquid scintillation counting of the filterplates in Ecolume scintillation fluid. The IC50 value (concentration at which 50% inhibition of specific binding occurs) was calculated using a logistic 4 parameter fit model of the concentration-response data. Ki values were calculated according to the Cheng Prusoff equation, Ki=IC50/(1+(L/Kd)), where L is the concentration of the radioligand used in the experiment and the Kd value is the dissociation constant for the radioligand (determined previously by saturation analysis).

[2] = In vitro intrinsic clearance in human liver microsomes; assay type: in vitro ADME
Description: Determination of In Vitro Intrinsic Clearance in Human Liver Microsomes:
Compounds were prepared as solutions in methanol. The final concentration of methanol in the incubation media was 0.2% (v/v). […] The total incubation volume was 1 mL. The reaction mixture was pre-warmed at 37° C. for 2 min before adding NADPH (1.2 mM). Aliquots (75 μL) of the reaction mixture at 0, 5, 10, 15, and 30 min were added to acetonitrile (200 μL) containing internal standard (terfenadine)(0.05 μg/mL), and the samples were centrifuged at 2500 g for 5 min prior to liquid chromatography/tandem mass spectrometry (LC/MS-MS) analysis of each compound using multiple reaction monitoring (MRM). For control experiments, NADPH was omitted from these incubations.
The microsomal half-life (t1/2) was obtained from a log-linear plot of the substrate depletion vs incubation time and was scaled to hepatic intrinsic clearance (CLint) using the following equation, in which the term t1/2 refers to the in vitro half-life: […]

major CYP450 isozymes = assay: CYP450 DDI cocktail assay (reversible inhibition, all isozymes together); assay type: in vitro ADME, human; conditions: CYP450 DDI cocktail assay, isozymes inhibited in brackets
Description: Multi-Point Cocktail DDI IC50 Assay Conditions:
Standard marker activity substrates were incubated with pooled human liver microsomes (HL-MIX-102) in the presence of NADPH (1.2 mM) in 100 mM KH2PO4, pH 7.4 containing 3.3 mM MgCl2 at 37° C. The incubation volume was 0.1 mL, utilizing a 384-well plate format. The microsomal protein concentrations (0.1 mg/mL) and P450 concentration (0.035 μM) was used for each probe substrate at the following concentrations [tacrine (1A2) 2 uM; diclofenac (2C9) 5 μM; dextromethorphan (2D6) 5 μM; midazolam (3A4) 2 μM; taxol (2C8) 5 μM; S-mephenytoin (2C19) 40 μM]. Substrate concentrations were near Km values that had been previously determined and incubation times were selected based on determinations of reaction velocity linearity. Each test compound/prototypical inhibitors was tested at a concentration range of 0-30 μM in triplicate, in final vehicle solvent concentrations of 0.9% acetonitrile and 0.1% DMSO. Incubations were initiated with the addition of NADPH. At the end of the incubation period, termination solvent containing internal standard was added, the terminated incubation mixture was centrifuged to precipitate microsomal protein. Samples were directly injected on an HPLC-MS/MS system. A Biomek FX workstation was used for liquid handling and sample incubation.
Reversible CYP450 inhibitory potential for each compound was assessed using the CYP450 DDI cocktail assay, measuring the inhibition of the metabolism of a known probe substrate of each of the major CYP isozymes at 3 μM concentration.

[3] = target: T2, human mu opioid receptor (hMOR) (Homo sapiens, UniProt P35372); assay: Mu radioligand binding assay ([3H]diprenorphine, CHO cell membranes); conditions: read-out: hMOR binding assay Ki
T2 construct: expressed in transfected cells; host or cells: CHO cells
Description: as §1
as §2, with “The IC50 value (concentration at which 50% inhibition of specific binding occurs) was calculated using a logistic 4 parameter fit model of the concentration-response data.” left out

kappa opioid receptor [4] = target: T3, kappa opioid receptor (Mus musculus, UniProt P33534); assay: In vivo receptor occupancy (displacement of [3H]GR103545 in brain); conditions: subcutaneous dosing
T3 construct: from tissue; host or cells: brain of adult male C57BL/6J mice (in vivo)
Description: (§3) Adult male C576BL/J6 mice from Jackson Labs (Bar Harbor, Me.) were group housed on individually-vented cage racks, in environmentally-controlled animal quarters (light/dark-6:00 am/6:[…]) for a minimum of 7 days prior to use. For progressive ratio studies, mice were food-restricted to 80-85% of their body weight before testing began. All animal procedures were approved by the Pfizer Inc. IACUC and conducted in accordance with the NIH Guide for the Care and Use of Laboratory Animals.
In Vivo Receptor Occupancy
In vivo receptor occupancy was assessed in adult male C57BL6/J mice. Mice were administered increasing doses (0.001-32 mg/kg s.c.) 30 min prior to administration of the kappa opioid receptor ligand, [^3H]GR103545 (100 μCi/kg, intraorbital). Animals were euthanized 10 min later using cervical dislocation and the brains dissected. One hemisphere was stored at −40° C. for subsequent measurement of compound concentration, the other was homogenized in chilled Tris-HCl buffer (50 mM, pH 7.4; 1:10 w/v) for twenty seconds. Samples of brain homogenate were filtered through 0.3 to 0.5% PEI-soaked GF/B filters, and the filters washed twice with chilled buffer before radioactivity was counted overnight using a scintillation counter. Binding of the ligand in cerebellum was used to determine non-specific binding.

kappa opioid receptor [5] = target: T3, kappa opioid receptor; assay: Progressive ratio responding (reversal of spiradoline-induced deficit in motivation); assay type: in vivo; conditions: co-administered with spiradoline, receptor occupancy measured in a separate group of animals
Description: as §3
Progressive Ratio Responding:
Motivation and food-reinforced operant behavior were assessed in the progressive ratio assay. Adult male C576BL/J6 mice were food-restricted to 80-85% of their body weight over a period of one week and kept in their home cages. Mice were trained to nose-poke for a food reward. […] Mice were assessed in a 60 minute session, where the number of rewards obtained was used as a surrogate of the level of motivation. Once mice had reached a stable level of responding, mice were dosed with the kappa opioid receptor agonist, spiradoline (3.2 mg/kg s.c.), to induce a deficit in motivation. Mice were co-administered increasing doses of the kappa opioid receptor antagonists (0.0032-3.2 mg/kg s.c.) to assess their ability to antagonize the spiradoline-induced deficit.

[6] = Table 19, geometric mean of 2-6 determinations unless otherwise indicated (Example 3: >=7)

T3 sequence (P33534 whole entry): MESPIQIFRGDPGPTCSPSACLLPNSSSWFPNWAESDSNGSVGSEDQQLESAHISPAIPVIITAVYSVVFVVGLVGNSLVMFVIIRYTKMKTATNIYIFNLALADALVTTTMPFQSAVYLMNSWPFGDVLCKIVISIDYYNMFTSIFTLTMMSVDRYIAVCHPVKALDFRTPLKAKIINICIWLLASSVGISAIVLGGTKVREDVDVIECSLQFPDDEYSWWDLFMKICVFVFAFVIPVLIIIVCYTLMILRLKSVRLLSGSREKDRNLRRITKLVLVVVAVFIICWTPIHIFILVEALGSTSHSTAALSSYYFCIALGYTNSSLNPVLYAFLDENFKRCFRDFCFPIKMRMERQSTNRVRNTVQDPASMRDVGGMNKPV
T1 sequence (P41145 whole entry): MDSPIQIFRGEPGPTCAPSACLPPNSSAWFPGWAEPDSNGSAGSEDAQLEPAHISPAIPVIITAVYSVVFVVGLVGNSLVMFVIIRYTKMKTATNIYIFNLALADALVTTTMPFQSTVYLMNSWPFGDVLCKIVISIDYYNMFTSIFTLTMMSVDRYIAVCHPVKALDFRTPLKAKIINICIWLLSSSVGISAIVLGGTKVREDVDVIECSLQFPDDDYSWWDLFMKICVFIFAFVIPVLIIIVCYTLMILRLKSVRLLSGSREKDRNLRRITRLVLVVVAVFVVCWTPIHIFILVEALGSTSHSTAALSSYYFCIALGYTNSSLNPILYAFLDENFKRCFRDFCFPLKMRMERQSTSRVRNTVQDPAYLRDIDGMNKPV
T2 sequence (P35372 whole entry): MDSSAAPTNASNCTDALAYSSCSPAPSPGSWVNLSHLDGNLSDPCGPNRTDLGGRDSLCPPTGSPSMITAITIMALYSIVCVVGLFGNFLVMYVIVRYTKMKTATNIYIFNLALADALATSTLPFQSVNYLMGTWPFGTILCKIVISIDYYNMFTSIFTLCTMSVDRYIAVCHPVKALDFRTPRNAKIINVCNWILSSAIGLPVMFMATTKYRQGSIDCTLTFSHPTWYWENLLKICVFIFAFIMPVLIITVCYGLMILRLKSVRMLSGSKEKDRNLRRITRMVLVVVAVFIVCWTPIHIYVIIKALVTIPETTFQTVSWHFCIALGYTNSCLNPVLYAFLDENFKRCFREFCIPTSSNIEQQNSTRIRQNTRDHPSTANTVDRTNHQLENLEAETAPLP

pKi [1, 6]	pKi ([1]; Table 20, radioligand binding)	Selectivity hMOR/hKOR [1]	hepatic / metabolic clearance in human liver microsomes, in words [2]	CLint scaled at 2 μM ([2]; human, pH 7.4, human liver microsomal intrinsic clearance, read-out: HLM CLint) [mL/min/kg]	>25% reversible inhibition of CYP activity at 3 μM (CYP) (major CYP450 isozymes)	pKi [3, 6]	pKi ([3]; Table 20, radioligand binding)	KOR potency, in words [1]	pIC50 (kappa opioid receptor [4]; displacement of [3H]GR103545, unbound brain concentration, read-out: Mouse KOR IVRO unbound brain IC50)	% KOR IVRO to achieve 50% PR reversal (kappa opioid receptor [5]) [%]	SMILES	selectivity for KOR over MOR, in words [1]	displacement of KOR agonist radioligand binding in the brain, in words (kappa opioid receptor [4])
9.18	9.18	38	higher metabolic clearance	105	no	7.60	7.60				COc1cc(C2CCCN2Cc2ccc(Oc3ccc(C(N)=O)cc3)cc2)n(C)n1 (single isomer, unassigned) [Example 46, 4-(4-{[2-(3-methoxy-1-methyl-1H-pyrazol-5-yl)pyrrolidin-1-yl]methyl}phenoxy)benzamide]		
8.77	8.77	64				6.97	6.97	excellent potency	9.60	85	Cc1cc([C@@H]2CCCN2Cc2ccc(Oc3ccc(C(N)=O)cc3F)cc2)n(C)n1 [Example 45, 4-(4-{[(2S)-2-(1,3-dimethyl-1H-pyrazol-5-yl)pyrrolidin-1-yl]methyl}phenoxy)-3-fluorobenzamide]	excellent potency and selectivity over MOR; also recorded: more selective than the phenyl examples, Comparators A and B	displaced KOR agonist radioligand ([^3H]GR103545) binding in the brain in an exposure-dependent manner
8.23						6.78					COc1nn(C)cc1C1COCCN1Cc1ccc(Oc2ccc(C(N)=O)cc2F)cc1 (single isomer, unassigned) [Example 20, 3-fluoro-4-(4-{[3-(3-methoxy-1-methyl-1H-pyrazol-4-yl)morpholin-4-yl]methyl}phenoxy)benzamide]		
8.22						7.50					COc1n[nH]cc1C1CCCN1Cc1ccc(Oc2ccc(C(N)=O)cc2)cc1 (single isomer, unassigned; (-)) [Example 14, (−)-4-(4-{[2-(3-Methoxy-1H-pyrazol-4-yl)pyrrolidin-1-yl]methyl}phenoxy)benzamide]		
